Test results from PMC10534526 (Molecules, 2023).
Where two headings read alike, the source gives them in different places.

What was measured:
AGE formation = AGE formation inhibitory activity (glucose-mediated protein glycation of BSA, spectrofluorometric); assay type: biochemical; settings: n = 3, 60°C, 24 h, read-out: AGE Inhibitory Activity (IC50, Mean ± SD)
Method: The compound PS10 with 4-methylpiperazine had better anti-glycating effects compared to the unsubstituted piperazine compound (PS6). […]
The synthesized compounds were assayed by the spectrofluorometric method for inhibition of glucose-mediated protein glycation. All the compounds and aminoguanidine (positive control) with different concentrations were evaluated in triplicate. […]
In vitro advanced glycation end-product (AGEs) formation inhibitory activity The assay for the ability of the synthesized compounds to inhibit the glucose-mediated protein glycation and the development of ﬂuorescent AGEs was performed. Different concentrations of various compounds were prepared by dissolving in DMSO. Anti-glycation assay was performed according to the methods reported by Matsuura and colleagues with slight modification. In all experiments, about 500 µl of Bovine serum albumin (1mg/ml final concentration) was incubated with 400 µl of glucose (500 mM) in the presence of 100 µl of test compounds, aminoguanidine or PBS as control buffer at different concentrations, The reaction was allowed to proceed at 60°C for 24hrs and thereafter reaction was stopped by adding 10 µl of 100% (w/v) trichloroacetic acid (TCA). Then the mixture was kept at 4°C for 10 min before subjected to centrifugation at 15,000 rpm. The precipitate was redissolved in 1ml alkaline PBS (pH10) and immediately quantified for relative amount of glycated BSA based on fluorescence intensity by spectrofluorometer LS-55 (Perkin Elmer) at 370 nm (excitation) and 440 nm (emission). Aminoguanidine was used as a positive control. Percentage inhibition was calculated. All experiments were performed in triplicate.

[1] = Free radical scavenging activity (DPPH, Blois method); settings: n = 3, read-out: Radical Scavenging Activity (EC50, Mean ± SD)
Method: The activity was tested using the spectrophotometric Blois method.
Radical scavenging activity (DPPH Method)
The stable 1, 1-diphenyl-2-picryl hydrazyl radical (DPPH) was used for determination of free radical-scavenging activity of the test compounds. The 0.1 mM solution of DPPH in methanol (39.4 mg in 1000 ml) was freshly prepared. Different concentrations of test compounds were added with an equal volume to methanol solution of DPPH. After 30 min at room temperature, the absorbance was recorded at 517 nm. Ascorbic acid was used as standard. IC50 values denote the concentration of sample, which is required to scavenge 50% of DPPH free radicals. IC50 value was determined from the plotted graph of scavenging activity against the different concentrations of test compounds. Ascorbic acid was applied as positive drug (Blois, 1958).

[2] = target: T1, brain AChE (rat cortex homogenate) (Rattus norvegicus, UniProt P37136); assay: biochemical
T1 construct: homogenate was used as the resource of AChE; from tissue; host or cells: rat cortex homogenate
T1 sequence (P37136 32-614): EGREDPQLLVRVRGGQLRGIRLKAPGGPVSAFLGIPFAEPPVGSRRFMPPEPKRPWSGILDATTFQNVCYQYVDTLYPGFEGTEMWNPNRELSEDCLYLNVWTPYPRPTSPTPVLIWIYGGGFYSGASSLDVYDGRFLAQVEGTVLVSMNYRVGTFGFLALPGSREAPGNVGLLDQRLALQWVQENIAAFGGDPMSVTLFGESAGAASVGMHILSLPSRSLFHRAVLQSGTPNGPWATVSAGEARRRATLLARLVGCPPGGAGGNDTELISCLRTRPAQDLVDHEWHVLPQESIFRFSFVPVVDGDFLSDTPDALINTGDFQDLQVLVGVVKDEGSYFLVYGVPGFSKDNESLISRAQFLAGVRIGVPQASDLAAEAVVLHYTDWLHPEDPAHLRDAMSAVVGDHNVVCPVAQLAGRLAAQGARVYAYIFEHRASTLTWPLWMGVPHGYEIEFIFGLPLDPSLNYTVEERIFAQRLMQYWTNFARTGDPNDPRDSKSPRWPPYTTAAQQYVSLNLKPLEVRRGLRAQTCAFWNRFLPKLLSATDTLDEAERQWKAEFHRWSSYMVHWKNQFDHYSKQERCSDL
Method: The ability of target compounds PS(1–10) to inhibit AChE was evaluated by the slightly modified Ellman’s method. The objective of attaching different amines to the 1,3-diphenylprop-2-enone skeleton via an ethoxy spacer was to enhance the interaction of the designed synthesized chalcones with both the PAS and CAS of AChE.
The inhibitory potential of synthesized compounds was evaluated for brain AChE by the widely used Ellman et al. process. The method involved using spectroscopic investigation at 450 nm. All the compounds with different concentrations were evaluated in triplicate including donepezil (standard AChE inhibitor).
In vitro inhibition of AChE
The inhibitory potency of target compounds on AChE was determined using spectroscopic […]
homogenate was used as the resource of AChE. For assay of AChE activity, a reaction mixture containing 100μl acetylthiocholine iodide 0.075M/L, 100μl sodium phosphate buffer (0.1M/L, pH 7.4), 20μl homogenate or serum and different concentrations of test compounds 20μl was incubated at 37° C for 15 min. The reaction was terminated by adding 50μl 3% sodium lauryl sulfate, then, 50μl, 0.2% of 5,5’–dithio-bis- (2-nitrobenzoic acid) (DTNB, 10 mg DTNB in 100 mL of Sorenson phosphate buffer, pH 8.0) was added to produce the yellow anion of 5-thio-2-nitro-benzoic acid. Assays were carried out with a blank containing all components except AChE in order to account for non-enzymatic reaction. The values of IC 50 were calculated by UV spectroscopy from the absorbance changes at 450 nm. A positive control of donepezil was used in the same range of concentrations. Each concentration was analyzed in triplicate. Data from concentration–inhibition experiments of the inhibitors were calculated by nonlinear regression analysis, using the GraphPad Prism 5 program. […]

[3] = tested on: STZ-induced cognitive impairment in rats; assay: Morris Water Maze in STZ-induced dementia; assay type: in vivo, Wistar rats; settings: STZ i.c.v. 3 mg/kg rats; PS10 2, 5, 10 mg/kg p.o., day 9 to 22
Method: The STZ model (i.c.v., 3 mg/kg) is commonly used to study AD in animals. The intracerebroventricular injection of STZ, at two sub-diabetogenic doses, induces a range of symptoms including impaired cognition, metabolic and molecular changes, and neuropathological symptoms in rodents which are often found in AD subjects. […] The ROS produced can cause damage to the myelin sheath and acetyl coenzyme-A in the hippocampus. As a result, there is an increase in AChE activity, leading to behavioral disturbances, as in Alzheimer’s disease. Thus, this model is frequently used for AD interventions.
MWM is the most commonly used method to measure learning and spatial memory in rats. MWM utilizes the natural swimming ability of rats. As a result, during the retrieval phase, there is no induced stress that could affect the results. The MWM model is commonly used to test drugs that enhance memory and provide neuroprotection. Thus, it has been used to understand the effect of PS10 on the memory of animals with induced cognitive impairment by means of restoring the ELT.
To induce cognitive impairment in rats, solutions of Streptozotocin (STZ, 3 mg/kg) in artificial cerebro-spinal fluid (ACSF) were given as i.c.v. (intracerebroventricular) injections. The STZ injections were administered bilaterally on days 1 and 3 of the experimental protocol. […]

brain AChE = target: T2, brain AChE (Rattus norvegicus, UniProt P37136); assay: Brain AChE activity in STZ-treated rats (brain homogenate); assay type: in vivo; settings: STZ i.c.v. rats; PS10 2, 5, 10 mg/kg p.o.
T2 construct: from tissue; host or cells: brain homogenate of STZ-treated Wistar rats
T2 sequence (P37136 32-614): T1 sequence (P37136 32-614)
Description: The central cholinergic system is critical for cognitive function, and AD patients often suffer from cholinergic hypofunction due to increased AChE activity and the degeneration of cholinergic neurons. Animal studies have shown that the administration of STZ (i.c.v) increases brain AChE activity, which leads to cognitive impairment and memory deficits. […]. Possibly, due to these interactions between PS10 and amino acids of AChE, PS10 was able to inhibit AChE activity.
(§1) Groups IV, V, and VI (STZ + PS10): Following intracerebroventricular injections of STZ, animal groups were administered different doses of PS10 (2, 5, and 10 mg/kg, p.o., respectively), from 9 to 22 days.
(§2) After the behavioral experiment was completed, the rats were euthanized under mild anesthesia using cervical dislocation, and their brains were extracted. The homogenates were made in a buffer (pH 7.4) for further analysis. AChE activity, total protein levels, reduced GSH levels, and thiobarbituric acid reactive species (TBARS) levels were measured using the brain homogenates.

[4] = tested on: brain GSH and TBARS levels; assay: Brain oxidative stress markers (GSH, TBARS) in STZ-treated rats; assay type: in vivo, Wistar rats; settings: STZ i.c.v. rats; PS10 2, 5, 10 mg/kg p.o.
Description: Another crucial factor that contributes to the progression of AD is oxidative stress. The brain is more vulnerable to oxidative damage compared to other organs due to its high energy demand, relatively lower level of antioxidant defense mechanisms, and high concentration of polyunsaturated fatty acids. STZ injection generates free radicals that overwhelm the brain’s defensive antioxidant system (GSH) and cause lipid membrane oxidation, leading to the production of malondialdehyde. Thus, in order to analyze the antioxidant property of PS10, the levels of TBARS and GSH were measured in the current investigation (Figure 6).
as §1, §2

[5] = n = 3, rat cortex homogenate, read-out: AChE Inhibitory Activity (IC50, Mean ± SD)

| Structure (SMILES) | IC50 (AGE formation) [nM] | EC50 [1] [nM] | IC50 [2, 5] [nM] | other results |
| --- | --- | --- | --- | --- |
| N=C(N)NN [Aminoguanidine (AG), Aminoguanidine, reference compound] | 44300 ± 120 |  |  |  |
| O=C1O[C@H]([C@@H](O)CO)C(O)=C1O [Ascorbic acid, reference compound] |  | 21.7 ± 0.08 |  |  |
| O=C(C=Cc1ccc(O)cc1)c1ccccc1 [PS1, 3-(4-Hydroxyphenyl)-1-phenylprop-2-en-1-one] | 43600 ± 80 | 22.4 ± 0.4 |  | IC50 [2]: 36.5 ± 0.42 nM |
| CN(C)CCOc1ccc(C=CC(=O)c2ccccc2)cc1 [PS2, 3-(4-(2-(Dimethylamino)ethoxy)phenyl)-1-phenylprop-2-en-1-one] | 68600 ± 230 | 49.85 ± 0.11 | 52.51 ± 0.2 |  |
| CCN(CC)CCOc1ccc(C=CC(=O)c2ccccc2)cc1 [PS3, 3-(4-(2-(Diethylamino)ethoxy)phenyl)-1-phenylprop-2-en-1-one] | 67300 ± 330 | 49.41 ± 0.22 | 47.5 ± 0.21 |  |
| CN(CCOc1ccc(C=CC(=O)c2ccccc2)cc1)Cc1ccccc1 [PS4, 3-(4-(2-(Benzyl(methyl)amino)ethoxy)phenyl)-1-phenylprop-2-en-1-one] | 69390 ± 200 | 49.48 ± 0.21 | 48.8 ± 0.04 |  |
| O=C(C=Cc1ccc(OCCN2CCCCC2)cc1)c1ccccc1 [PS5, 1-Phenyl-3-(4-(2-(piperidin-1-yl)ethoxy)phenyl)prop-2-en-1-one] | 55300 ± 200 | 34.4 ± 0.4 | 19.7 ± 0.3 |  |
| O=C(C=Cc1ccc(OCCN2CCNCC2)cc1)c1ccccc1 [PS6, 1-Phenyl-3-(4-(2-(piperazin-1-yl)ethoxy)phenyl)prop-2-en-1-one] | 64510 ± 200 | 46.7 ± 0.24 | 21.4 ± 0.8 |  |
| O=C(C=Cc1ccc(OCCN2CCOCC2)cc1)c1ccccc1 [PS7, 3-(4-(2-Morpholinoethoxy)phenyl)-1-phenylprop-2-en-1-one] | 51200 ± 800 | 37.65 ± 0.24 | 22.72 ± 0.13 |  |
| O=C(C=Cc1ccc(OCCN2CCCC2)cc1)c1ccccc1 [PS8, 1-Phenyl-3-(4-(2-(pyrrolidin-1-yl)ethoxy)phenyl)prop-2-en-1-one] | 65410 ± 360 | 48.64 ± 0.18 | 32.72 ± 0.12 |  |
| O=C(C=Cc1ccc(OCCn2ccnc2)cc1)c1ccccc1 [PS9, 3-(4-(2-(1H-Imidazol-1-yl)ethoxy)phenyl)-1-phenylprop-2-en-1-one] | 65700 ± 170 | 48.58 ± 0.42 | 26.3 ± 0.3 |  |
| CN1CCN(CCOc2ccc(C=CC(=O)c3ccccc3)cc2)CC1 [PS10, 3-(4-(2-(p-Methylpiperazin-1-yl)ethoxy)phenyl)-1-phenylprop-2-en-1-one] | 49850 ± 130 | 22.83 ± 0.2 | 15.3 ± 0.72 | ELT (escape latency time) in MWM [3]: significantly decreased STZ-induced cognitive impairment; TSTQ (time spent in target quadrant) in MWM [3]: significantly decreased STZ-induced cognitive impairment; brain AChE activity (brain AChE): restored; brain GSH level [4]: reversed; brain TBARS levels [4]: reversed |
